Where a SMILES comes first, the peptide text is derived from it. Bridges are numbered along the chain shown (N, C = ends). [ ]: non-standard residue; d: D form. The star is where a group is joined. hPhe(3-Cl-4-CF3) = N[C@@H](CCc1ccc(C(F)(F)F)c(Cl)c1)C(=O)O; NPrPhe(4-CF3) = CCCN[C@@H](Cc1ccc(C(F)(F)F)cc1)C(=O)O; NMeGly(cPent) = CN[C@H](C(=O)O)C1CCCC1; NMeD = CN[C@@H](CC(=O)O)C(=O)O; NMeL = CN[C@@H](CC(C)C)C(=O)O; Piperidide = C1CCN(*)CC1; Ac4c = NC1(C(=O)O)CCC1; Sar = CNCC(=O)O
How the values were obtained:
[1] = biological target: GDP-bound HRAS wild-type protein (Homo sapiens, UniProt P01112); experiment: Binding to HRAS by surface plasmon resonance (SPR), Single Cycle Kinetics; conditions: for HRAS/KRAS (ratio of KD value with respect to HRAS to KD value with respect to KRAS) / HRAS/KRAS (ratio of KD value for HRAS to KD value for KRAS): GDP-bound HRAS wild-type vs GDP-bound KRAS wild-type
[2] = biological target: GDP-bound NRAS wild-type protein (Homo sapiens, UniProt P01111); experiment: Binding to NRAS by surface plasmon resonance (SPR), Single Cycle Kinetics; conditions: for NRAS/KRAS (ratio of KD value with respect to NRAS to KD value with respect to KRAS) / NRAS/KRAS (ratio of KD value for NRAS to KD value for KRAS): GDP-bound NRAS wild-type vs GDP-bound KRAS wild-type
[3] = SPR, GDP-bound wild-type proteins

Sequence of GDP-bound NRAS wild-type protein (P01111 whole entry): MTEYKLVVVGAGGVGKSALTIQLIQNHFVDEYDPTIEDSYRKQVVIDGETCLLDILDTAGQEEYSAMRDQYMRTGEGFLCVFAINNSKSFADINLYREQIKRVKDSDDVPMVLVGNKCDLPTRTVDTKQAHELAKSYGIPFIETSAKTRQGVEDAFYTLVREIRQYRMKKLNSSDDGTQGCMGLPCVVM
Sequence of GDP-bound HRAS wild-type protein (P01112 whole entry): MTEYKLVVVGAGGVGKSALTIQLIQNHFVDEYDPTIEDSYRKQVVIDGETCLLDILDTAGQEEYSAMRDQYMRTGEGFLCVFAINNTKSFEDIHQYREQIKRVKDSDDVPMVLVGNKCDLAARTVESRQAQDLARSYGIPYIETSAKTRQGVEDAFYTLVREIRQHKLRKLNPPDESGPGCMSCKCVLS

SMILES: CCC[C@H]1C(=O)N[C@@H]([C@@H](C)CC)C(=O)N(C2CC2)CC(=O)N(C)[C@H]2C/C=C\CCN(C2=O)[C@@H](Cc2ccc(C)cc2)C(=O)N(C)CC(=O)N[C@@H](CCc2ccc(C(F)(F)F)c(OC)c2)C(=O)N2C[C@H](OCC)C[C@H]2C(=O)N(C)C2(CCC2)C(=O)N(C)[C@@H](C2CCCC2)C(=O)N(C)[C@H](C(=O)N2CCCC2)CC(=O)N1C [PP3098, (2S,8S,12R,14S,20S,23S,27S,30S,36S,38Z)-20-cyclopentyl-32-cyclopropyl-12-ethoxy-8-[2-[3-methoxy-4-(trifluoromethyl)phenyl]ethyl]-4,16,19,22,26,35-hexamethyl-30-[(1S)-1-methylpropyl]-27-propyl-2-(p-tolylmethyl)-23-(pyrrolidine-1-carbonyl)spiro[1,4,7,10,16,19,22,26,29,32,35-undecazatricyclo[34.5.1.0^10,14]dotetracont-38-ene-17,1′-cyclobutane]-3,6,9,15,18,21,25,28,31,34,42-undecone]
- HRAS/KRAS (ratio of KD value with respect to GDP-bound HRAS wild-type protein to KD value with respect to KRAS) [1, 3]: A (a compound having 10 or more and less than 20 is denoted as A)
- NRAS/KRAS (ratio of KD value with respect to GDP-bound NRAS wild-type protein to KD value with respect to KRAS) [2, 3]: A (a compound having 10 or more and less than 20 is denoted as A)

SMILES: CCC[C@H]1C(=O)N[C@@H]([C@@H](C)CC)C(=O)N(C)CC(=O)N(C)[C@H]2C/C=C\CCN(C2=O)[C@@H](Cc2ccc(C)cc2)C(=O)N(C)CC(=O)N[C@@H](CCc2ccc(Cl)c(C(F)(F)F)c2)C(=O)N2C[C@H](OCC)C[C@H]2C(=O)NC2(CC(C)(C)C2)C(=O)N(C)[C@@H](C2CCCC2)C(=O)N(C)[C@H](C(=O)N(C)C)CC(=O)N1C [PP2786]
- HRAS/KRAS (ratio of KD value with respect to GDP-bound HRAS wild-type protein to KD value with respect to KRAS) ([1]; class symbols): A (a compound having 10 or more and less than 20 is denoted as A)
- NRAS/KRAS (ratio of KD value with respect to GDP-bound NRAS wild-type protein to KD value with respect to KRAS) ([2]; class symbols): A (a compound having 10 or more and less than 20 is denoted as A)

SMILES: CCO[C@@H]1C[C@H]2C(=O)NC3(CC(C)(C)C3)C(=O)N(C)[C@@H](C(CC)CC)C(=O)N(C)[C@H](C(=O)N3CCCC3)CC(=O)N(C)[C@@H](COC)C(=O)N[C@@H]([C@@H](C)CC)C(=O)N(C)CC(=O)N(C)[C@H]3C/C=C\CCN(C3=O)[C@@H](Cc3ccc(C)cc3)C(=O)N(C)CC(=O)N[C@@H](CCc3ccc(C(F)(F)F)c(Cl)c3)C(=O)N2C1 [PP2144]
- HRAS/KRAS (ratio of KD value with respect to HRAS to KD value with respect to KRAS) ([1]; SPR): A (a compound having 10 or more and less than 20 is denoted as A)
- NRAS/KRAS (ratio of KD value with respect to NRAS to KD value with respect to KRAS) ([2]; SPR): AA (a compound having 20 or more is denoted as AA)

SMILES: CC[C@H](C)[C@@H]1NC(=O)[C@H](CC)N(C)C(=O)C[C@@H](C(=O)N(C)C)N(C)C(=O)[C@H](C2CCCC2)N(C)C(=O)C2(CCC2)NC(=O)[C@@H]2C[C@H](C)CN2C(=O)[C@H](CCc2cc(F)c(C(F)(F)F)c(F)c2)NC(=O)CN(C)C(=O)[C@H](Cc2ccc(C(F)(F)F)cc2)N2CC/C=C\C[C@@H](C2=O)N(C)C(=O)CN(C)C1=O [PP1134]
- HRAS/KRAS (ratio of KD value with respect to HRAS to KD value with respect to KRAS) ([1]; KD ratio, SPR): B (a compound having 3 or more and less than 10 is denoted as B)
- NRAS/KRAS (ratio of KD value with respect to NRAS to KD value with respect to KRAS) ([2]; KD ratio, SPR): A (a compound having 10 or more and less than 20 is denoted as A)

SMILES: CCO[C@@H]1C[C@H]2C(=O)N(C)C3(CCCC3)C(=O)N(C)[C@@H](C3CCCC3)C(=O)N(C)[C@H](C(=O)N(C)C)CC(=O)N(C)[C@@H](CC)C(=O)N[C@@H]([C@@H](C)CC)C(=O)N(C)CC(=O)N(C)[C@H]3C/C=C\CCN(C3=O)[C@@H](Cc3ccc(C)cc3)C(=O)N(C)CC(=O)N[C@@H](CCc3cc(F)c(C(F)(F)F)c(F)c3)C(=O)N2C1 [PP1806]
- HRAS/KRAS (ratio of KD value for HRAS to KD value for KRAS) ([1]; KD ratio, SPR): B (a compound having 3 or more and less than 10 is denoted as B)
- NRAS/KRAS (ratio of KD value for NRAS to KD value for KRAS) ([2]; KD ratio, SPR): A (a compound having 10 or more and less than 20 is denoted as A)

SMILES: CCC(CC)[C@H]1C(=O)N(C)[C@H](C(=O)N(C)C)CC(=O)N(C)[C@@H](COC)C(=O)N[C@@H]([C@@H](C)CC)C(=O)N(C)CC(=O)N(C)[C@H]2C/C=C\CCN(C2=O)[C@@H](Cc2ccc(C)cc2)C(=O)N(C)CC(=O)N[C@@H](CCc2ccc(C(F)(F)F)c(OC)c2)C(=O)N2CCOC[C@H]2C(=O)NC2(CC(C)(C)C2)C(=O)N1C [PP2938]
- HRAS/KRAS (ratio of KD value with respect to GDP-bound HRAS wild-type protein to KD value with respect to KRAS) ([1]; class symbols): A (a compound having 10 or more and less than 20 is denoted as A)
- NRAS/KRAS (ratio of KD value with respect to GDP-bound NRAS wild-type protein to KD value with respect to KRAS) ([2]; class symbols): AA (a compound having 20 or more is denoted as AA)

SMILES: CCCN1C(=O)CN(C)C(=O)CN(C)C(=O)[C@H]([C@@H](C)CC)NC(=O)[C@H](CC(C)C)N(C)C(=O)C[C@@H](C(=O)N2CCCCC2)N(C)C(=O)[C@H](C2CCCC2)N(C)C(=O)C2(CCC2)NC(=O)[C@@H]2CCCN2C(=O)[C@H](CCc2ccc(C(F)(F)F)c(Cl)c2)NC(=O)CN(C)C(=O)[C@@H]1Cc1ccc(C(F)(F)F)cc1 [PP1930] ([NMeL]I[Sar][Sar][NPrPhe(4-CF3)][Sar][hPhe(3-Cl-4-CF3)]P[Ac4c][NMeGly(cPent)][NMeD]-Piperidide; lactam N-11)
- HRAS/KRAS (ratio of KD value for HRAS to KD value for KRAS) ([1]; KD ratio, SPR): C (A compound having a KD ratio of 0.1 or more and less than 3 is denoted as C)
- NRAS/KRAS (ratio of KD value for NRAS to KD value for KRAS) ([2]; KD ratio, SPR): B (a compound having 3 or more and less than 10 is denoted as B)

Reference: patent US20250230193A1, “CYCLIC COMPOUND HAVING SELECTIVE KRAS INHIBITORY EFFECT ON HRAS AND NRAS” (CHUGAI SEIYAKU KABUSHIKI KAISHA, priority 2022, published 2025)
